Measurements reported in patent US7067486B2, “Acetylcholinesterase-derived peptides and uses thereof” (priority 1999, dated 2006).
Marks after values point to notes of the source that are not given here.

Tested on: CD34^+ cells
Test: Cell phenotyping of CD34+ liquid cultures by flow cytometry (CD34, CD33, CD15, CD41)
Format: cell-based, human
Conditions: day 14; seeded at 50,000 cells/well; ARP 2 nM, cortisol 1.2 μM, ASP 2 nM, SCF 50 ng/ml, AS1 20 pM, PBAN 2 nM
Description: Cell Source: UCB was collected, following informed consent of the parents and with the approval of the Sourasky Medical Center Ethics Committee, as previously described [Grisaru et al. (1999a) Am. J. Obstet. Gynecol, 180, 1240–1243]. Following 1:1 (v/v) dilution in Iscove's modified Dulbecco medium (IMDM, Beit Haemek, Israel), mononuclear cells were separated using 3% gelatin (Difco, Detroit, Mich.) and Ficoll-Hypaque gradients (<1.077 g/ml; Pharmacia, Uppsala, Sweden) [Pick et al. (1998) Br. J. Haematol. 103, 639–50]. CD34^+ cells were enriched using CD34 immunoglobulin-coated magnetic beads (CD34 progenitor cell selection system, Dynal, Norway).CD34^+ cells analysis was performed by flow cytometry (Becton Dickinson Immunocytochemistry System Inc., San Jose, Calif.), using CD34-PE (Becton Dickinson Immunocytometry System, Inc.) and CD45-FITC (Dako, Glostrup, Denmark) monoclonal antibodies. […] Liquid Cultures: UCB CD34^+ cells were set for liquid cultures at a concentration of 10^5/mL in IMDM, containing 10% autologous plasma, 2 mM L-glutamine (Sigma Chemical Co., St Louis, Mo.), penicillin ([…]), streptomycin ([…]), amphotericin B (2×10^−5 M) (Sigma Chemical Co.), and heparin (20 IU/mL, Gibco, Grand Island, N.Y.), all in a fully humidified atmosphere at 37° C. and 5% CO2. The following elements were added where noted: • 1. […] Endothlial Growth factors: Epidermal growth factor (EGF 10 ng/ml, Sigma Chemical Co.), basic Fibroblast growth factor (bFGF 20 ng/ml, Sigma Chemical Co.) incubated in a serum free medium (SFM) for 48 hr. • 3. Stress mimicking conditions: Hydrocortisone sodium succinate (Abic Ltd., Netanya, Israel) at concentrations equivalent to normal, intermediate and stress serum cortisol levels (0.1, 0.6 and 1.2 μM, respectively (De Vroede et al., Arch. Des. […] Antisense oligonucleotides: 3′-terminal 2′-O-Methylated 15- and 20-mer oligodeoxynucleotides in the antisense (AS) orientation, targeted against the common sequence domain in human AChEmRNA and BuChE mRNA, as control, […], as detailed elsewhere [Grisaru et al. (1999b) Mol. Cell. Biol. 19, 788–95]. • 5. AChE C-terminal peptides: The following C-terminal peptides of the AChE synaptic (ASP, also denoted SEQ ID: No. 2) and readthrough (ARP, also denoted SEQ ID: No. 1) isoforms were synthesized using a 433A peptide synthesizer (PE Applied Biosystems, Inc., Norwalk, Conn.). • ASP: 1-[…]-40, also denoted as SEQ ID: No. 2. • ARP: 1-[…]-26, also denoted as SEQ ID: No. 1.
Culture Analyses: Twenty-four hr liquid cultures served for cytochemical staining, in situ hybridization, and cell proliferation assay by 5-bromo-2′-deoxy-Uridine (BrdU) incorporation [Grisaru et al. (1999b) id ibid.]. Twenty-eight day liquid cultures were sampled every 6–8 days for viable cell counting (using trypan blue dye exclusion), cell phenotyping (CD34^+, CD33^+ and CD41^+ quantification using flow cytometry, with CD34-PE, CD33-FITC (Immunotech/Coulter, Hialeah, Fla.), CD41-FITC (Immunoquality Products, Groningen, Netherlands) and CD45-FITC monoclonal antibodies), and growth of progenitor colony (granulocyte-macrophage and megakaryocytic), using previously described techniques (Pick et al. (1998) id ibid.). […] 11, 1049–57]. Nuclear staining w with 4′,6-diamidino-2- phenylindole [DAPI, see e.g., Peterson et al. (1999) Genetics 152, 427–439].

ASP (DTLDEAERQWKAEFHRWSSYMVHWKNQFDHYSKQDRCSDL)
CD33^+ (early myeloids): 10.0 cells per culture × 10^−3
CD33^+ and CD15^+ (total myeloids): 13.0 cells per culture × 10^−3
CD34^+ (early progenitors): 7.2 cells per culture × 10^−3
CD41^+ (megakaryocytes): 4.6^b cells per culture × 10^−3
